These results are taken from patent publication EP4553077A1 (Kinoteck Therapeutics Co., Ltd, priority 2022, dated 2024).

One data set concerns the target CYP3A4 (Homo sapiens, UniProt P08684). The experiment in a line: Cytochrome P450 inhibition in human liver microsomes. On the technique in general: Liver microsomes are a subcellular fraction often used to study metabolism.
A short description of data set [1]: Pharmacokinetic test in rats. The format is in vivo, male SD rats. Particulars: rat, plasma, oral gavage administration, 10 mg/kg. The method, then: Rat pharmacokinetic experiments were performed using male SD rats, 180-220g, provided by Beijing Vital River Laboratory Animal Technology Co., Ltd. 3 rats that were fasted overnight were taken, and administered orally by gavage (10 mg/kg). Blood samples were collected before administration, as well as 5, 15, 30 min and 1, 2, 4, 6, 8, 24 h after administration; another 3 rats were taken and administered intravenously (1 mg/kg), blood samples were collected before administration, as well as 5, 15, 30 min and 1, 2, 4, 6, 8, 24 h after administration. Blood sample was centrifuged at 6800g, 2-8 °C for 6 min, and plasma was collected, and stored at -80 °C. Plasma of each time point was taken, 10 times the amount of 50% methanol acetonitrile solution containing internal standard was added, and mixed by vortex for 5 min, centrifuged at 18000 rpm at 4 °C for 10 min, and the supernatant was taken directly for LC-MS/MS analysis. The main pharmacokinetic parameters were analyzed using WinNonlin8.2 software for non compartmental model analysis. Table 3: pharmacokinetic test in rats results of test compounds

The next data set concerns the target CYP2C19 (Homo sapiens, UniProt P33261). Briefly: Cytochrome P450 inhibition in human liver microsomes.
Data set [2] in a line: Rat liver cells metabolic stability. The format is in vitro ADME. Particulars: rat liver cells 0.5 × 10^6 cells/mL; for hepatocyte CLint / half-life: hepatocytes; for hepatocyte CLint: read-out: in vitro CLint (µL/min/10^6 cells); for half-life: read-out: in vitro t1/2. The method, then: Test compound and control drug verapamil powder were prepared into […] stock solution using DMSO, and they were diluted with 50% acetonitrile/50% water to 100 µM working solution before use.
• 1) 49.5 mL Williams E Medium and 0.5 mL glutaMAX were mixed as incubation medium. The liver cell resuscitation solution and incubation solution were preheated in a 37 °C water bath for at least 15 min before use. • 2) A tube of liver cells stored at ultra-low temperature was taken and ensured that they remain in a low-temperature frozen state before resuscitation. The liver cells were placed quickly in a 37 °C water bath and shaken gently until all ice crystals were dispersed. • 3) The contents of the liver cells tubes were poured into a centrifuge tube containing 50 mL of resuscitation medium, and they were centrifuged at 100 g for 10 min. After centrifugation, the resuscitation medium was aspirated, and sufficient incubation medium was added to obtain a cell suspension with a cell density of approximately 1.0 × 10^6 cells/mL. • 4) AO/PI staining was used to count liver cells and determine viable cell density, the survival rate of liver cells must be greater than 75%. The liver cell suspension was diluted with incubation medium to a viable cell density of 0.5 × 10^6 cells/mL.
• 1) 198 µL live cell suspension was transferred to a 96 well deep well plate, and the deep well plate was placed on a vortex and preheat in the incubator for 10 min. • 2) 2 µL 100 µM test compound or positive control compound was added to each well for reaction initiation, and the deep well plate was placed back on the incubator vortex. • 3) The incubation plate was placed into the incubator for incubation. 25 µL suspension was taken at 0.5, 15, 30, 60, 90, and 120 min, and 6-fold (150 µL) acetonitrile containing internal standard quencher (100 nM alprazolam, 200 nM caffeine, and 100 nM toluenesulfonylbutamide) was added to a new 96 well plate to terminate the reaction. The plate was vortexed for 5 min and centrifuged at 3220 rpm and 4 °C for 45 min to precipitate the protein. 100 µL of supernatant was transferred to the sample plate, and 100 µL pure water was added and mixed well for UPLC-MS/MS analysis. All incubation systems were conducted in a dual parallel manner.
All data was calculated using Microsoft Excel software. Peak area was detected by extracting ion chromatogram. In vitro half-life (T1/2) and in vitro clearance rate (in µL/min/10^6 cells) of the parent drug were detected by linearly fitting of the natural logarithm of the […] percentage of the parent drug versus time. Table 6 Results of rat liver cell stability test

A further data set deals with CYP2C9 (Homo sapiens, UniProt P11712). The experiment in a line: Cytochrome P450 inhibition in human liver microsomes.
Chain of CYP2C9 (P11712 whole entry): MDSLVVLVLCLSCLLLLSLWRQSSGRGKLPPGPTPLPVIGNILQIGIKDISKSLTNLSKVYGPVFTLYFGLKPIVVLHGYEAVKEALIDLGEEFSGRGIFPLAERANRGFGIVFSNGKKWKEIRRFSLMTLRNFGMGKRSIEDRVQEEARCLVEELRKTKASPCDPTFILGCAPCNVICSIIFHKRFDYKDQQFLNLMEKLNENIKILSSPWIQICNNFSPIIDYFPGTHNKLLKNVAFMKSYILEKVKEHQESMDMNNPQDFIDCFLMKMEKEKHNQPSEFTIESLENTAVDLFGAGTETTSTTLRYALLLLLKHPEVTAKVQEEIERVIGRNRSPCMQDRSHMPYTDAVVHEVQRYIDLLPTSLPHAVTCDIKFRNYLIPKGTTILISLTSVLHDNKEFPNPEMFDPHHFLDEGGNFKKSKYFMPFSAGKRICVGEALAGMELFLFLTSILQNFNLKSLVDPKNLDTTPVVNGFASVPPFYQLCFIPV
The next data set has as its target Ba/F3-TEL-FGFR1 (Homo sapiens, UniProt P11362+P41212). The experiment in a line: Cell viability (proliferation inhibition) of Ba/F3 cells, CellTiter Glo. Particulars: read-out: Ba/F3 cell FGFR1 (IC50 nM), 72 h. A general note: In ATP-based viability assays light output follows the ATP content of the culture.
For another data set, the target named is T1, CYP1A2 (Homo sapiens, UniProt P05177).
T1 sequence (P05177 1-516): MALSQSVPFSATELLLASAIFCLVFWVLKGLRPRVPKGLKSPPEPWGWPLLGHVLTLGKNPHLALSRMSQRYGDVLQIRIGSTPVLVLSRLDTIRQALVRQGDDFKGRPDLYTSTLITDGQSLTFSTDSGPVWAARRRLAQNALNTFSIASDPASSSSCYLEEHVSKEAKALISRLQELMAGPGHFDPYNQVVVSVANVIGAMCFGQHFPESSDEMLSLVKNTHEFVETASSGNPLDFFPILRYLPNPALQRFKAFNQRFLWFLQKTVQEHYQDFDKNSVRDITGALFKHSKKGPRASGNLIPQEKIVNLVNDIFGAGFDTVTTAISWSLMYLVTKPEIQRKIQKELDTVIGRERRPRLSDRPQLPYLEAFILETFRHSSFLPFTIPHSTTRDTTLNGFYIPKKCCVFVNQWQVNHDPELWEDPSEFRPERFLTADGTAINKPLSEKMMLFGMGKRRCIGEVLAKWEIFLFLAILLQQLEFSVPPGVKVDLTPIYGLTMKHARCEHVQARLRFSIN
Briefly: Cytochrome P450 inhibition in human liver microsomes.

A further data set has as its target hERG (Homo sapiens, UniProt Q12809). Briefly: Manual patch clamp, hERG channel current in HEK-293 cells.
Another data set addresses CYP2D6 (Homo sapiens, UniProt P10635). Briefly: Cytochrome P450 inhibition in human liver microsomes.
For the next data set, the target named is Ba/F3-TEL-FGFR2 (Homo sapiens, UniProt P21802+P41212). The experiment in a line: Cell viability (proliferation inhibition) of Ba/F3 cells, CellTiter Glo. Particulars: read-out: Ba/F3 cell FGFR2 (IC50 nM), 72 h.
Chain of Ba/F3-TEL-FGFR2 (P21802 481-770 limits assumed, one chain of several): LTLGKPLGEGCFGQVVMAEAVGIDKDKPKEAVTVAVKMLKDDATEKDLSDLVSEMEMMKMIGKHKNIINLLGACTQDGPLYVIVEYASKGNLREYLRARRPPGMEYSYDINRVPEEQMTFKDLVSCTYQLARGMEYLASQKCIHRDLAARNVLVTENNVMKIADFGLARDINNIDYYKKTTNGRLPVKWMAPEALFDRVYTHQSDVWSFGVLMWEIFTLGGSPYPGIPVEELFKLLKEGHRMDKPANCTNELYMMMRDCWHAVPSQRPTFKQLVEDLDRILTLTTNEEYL
The next data set has as its target Ba/F3-TEL-FGFR3 (Homo sapiens, UniProt P22607+P41212). The description is as above. Particulars: read-out: Ba/F3 cell FGFR3 (IC50 nM), 72 h.
Another data set concerns SNU16 cells. Briefly: Proliferation inhibition, CCK-8 colorimetric method. The note with it: Homo sapiens, SNU-16, 72 h. In kind it is cell-based. Here is the method: (§1) CCK-8 (Bimake/B34304) colorimetric method was used to detect the in vitro proliferation inhibitory effect of compounds on suspended or adherent cells in this experiment. The specific experimental steps were as follows: • 1) Cell plating: SNU16 and A204 tumor cells (cells from Shanghai Institute of Organic Chemistry, Chinese Academy of Sciences) in the logarithmic growth phase were digested and centrifuged for trypan blue counting, and the cells were seeded into a transparent 96 well plate at a density of 4000 cells/100 µ 1/well. […] The test compound and control compound stock solution were diluted with the corresponding culture medium required for cell culture (with or without solvent DMSO) to obtain a series of working solutions, with concentrations of twice the final concentration. The solvent DMSO contents in each concentration group were consistent with that of the solvent control group. The final concentration of A204 cells started at 10 µM and was diluted twice.
(§2) Calculation of cell survival rate: Cell survival rate (%)=[(As-Ac)/(Ab-Ac)] × 100%] (As: experimental well; Ab: Solvent control well; Ac: Blank well).
On the technique in general: Tetrazolium dyes change colour on reduction, which living cells bring about.

In another data set the test system is A204 cells. The description is as above. The format is cell-based. Particulars: Homo sapiens, 72 h. The method, then:
as §1, §2

Chain of CYP2C19 (P33261 whole entry): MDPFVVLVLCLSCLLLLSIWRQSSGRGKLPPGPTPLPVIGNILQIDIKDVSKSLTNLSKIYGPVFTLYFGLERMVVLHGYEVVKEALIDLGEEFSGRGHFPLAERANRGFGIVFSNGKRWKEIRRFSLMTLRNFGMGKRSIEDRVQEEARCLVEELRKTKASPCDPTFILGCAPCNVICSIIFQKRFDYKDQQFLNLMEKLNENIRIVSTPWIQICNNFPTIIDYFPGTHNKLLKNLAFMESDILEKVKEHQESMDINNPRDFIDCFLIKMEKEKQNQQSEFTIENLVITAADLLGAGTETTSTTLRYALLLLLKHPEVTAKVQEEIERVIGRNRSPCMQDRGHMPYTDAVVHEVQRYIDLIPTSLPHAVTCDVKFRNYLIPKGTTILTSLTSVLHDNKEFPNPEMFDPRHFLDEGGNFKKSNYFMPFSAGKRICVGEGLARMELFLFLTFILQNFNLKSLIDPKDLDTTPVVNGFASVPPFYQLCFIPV
Chain of Ba/F3-TEL-FGFR1 (P11362 478-767 limits assumed, one chain of several): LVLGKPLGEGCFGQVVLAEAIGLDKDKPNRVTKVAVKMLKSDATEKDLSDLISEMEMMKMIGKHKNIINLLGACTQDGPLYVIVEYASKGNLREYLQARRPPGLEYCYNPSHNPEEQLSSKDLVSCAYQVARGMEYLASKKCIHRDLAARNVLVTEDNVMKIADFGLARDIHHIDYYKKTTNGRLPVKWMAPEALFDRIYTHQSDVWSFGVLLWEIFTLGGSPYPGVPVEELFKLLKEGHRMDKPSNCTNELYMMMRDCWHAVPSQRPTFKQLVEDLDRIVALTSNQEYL
Chain of CYP3A4 (P08684 whole entry): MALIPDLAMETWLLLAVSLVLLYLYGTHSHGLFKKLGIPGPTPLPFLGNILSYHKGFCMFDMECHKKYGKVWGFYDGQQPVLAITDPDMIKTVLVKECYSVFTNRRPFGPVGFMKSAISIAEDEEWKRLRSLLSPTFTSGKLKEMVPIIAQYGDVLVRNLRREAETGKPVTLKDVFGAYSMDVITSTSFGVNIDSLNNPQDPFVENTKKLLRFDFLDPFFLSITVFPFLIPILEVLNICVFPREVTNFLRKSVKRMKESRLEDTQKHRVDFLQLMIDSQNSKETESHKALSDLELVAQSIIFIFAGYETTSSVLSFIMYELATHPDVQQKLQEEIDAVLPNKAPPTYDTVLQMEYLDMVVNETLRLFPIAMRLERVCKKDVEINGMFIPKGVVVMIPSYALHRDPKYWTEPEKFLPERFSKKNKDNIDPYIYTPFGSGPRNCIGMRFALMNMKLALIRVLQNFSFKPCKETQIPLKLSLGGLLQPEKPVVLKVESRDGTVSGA
Chain of hERG (Q12809 whole entry): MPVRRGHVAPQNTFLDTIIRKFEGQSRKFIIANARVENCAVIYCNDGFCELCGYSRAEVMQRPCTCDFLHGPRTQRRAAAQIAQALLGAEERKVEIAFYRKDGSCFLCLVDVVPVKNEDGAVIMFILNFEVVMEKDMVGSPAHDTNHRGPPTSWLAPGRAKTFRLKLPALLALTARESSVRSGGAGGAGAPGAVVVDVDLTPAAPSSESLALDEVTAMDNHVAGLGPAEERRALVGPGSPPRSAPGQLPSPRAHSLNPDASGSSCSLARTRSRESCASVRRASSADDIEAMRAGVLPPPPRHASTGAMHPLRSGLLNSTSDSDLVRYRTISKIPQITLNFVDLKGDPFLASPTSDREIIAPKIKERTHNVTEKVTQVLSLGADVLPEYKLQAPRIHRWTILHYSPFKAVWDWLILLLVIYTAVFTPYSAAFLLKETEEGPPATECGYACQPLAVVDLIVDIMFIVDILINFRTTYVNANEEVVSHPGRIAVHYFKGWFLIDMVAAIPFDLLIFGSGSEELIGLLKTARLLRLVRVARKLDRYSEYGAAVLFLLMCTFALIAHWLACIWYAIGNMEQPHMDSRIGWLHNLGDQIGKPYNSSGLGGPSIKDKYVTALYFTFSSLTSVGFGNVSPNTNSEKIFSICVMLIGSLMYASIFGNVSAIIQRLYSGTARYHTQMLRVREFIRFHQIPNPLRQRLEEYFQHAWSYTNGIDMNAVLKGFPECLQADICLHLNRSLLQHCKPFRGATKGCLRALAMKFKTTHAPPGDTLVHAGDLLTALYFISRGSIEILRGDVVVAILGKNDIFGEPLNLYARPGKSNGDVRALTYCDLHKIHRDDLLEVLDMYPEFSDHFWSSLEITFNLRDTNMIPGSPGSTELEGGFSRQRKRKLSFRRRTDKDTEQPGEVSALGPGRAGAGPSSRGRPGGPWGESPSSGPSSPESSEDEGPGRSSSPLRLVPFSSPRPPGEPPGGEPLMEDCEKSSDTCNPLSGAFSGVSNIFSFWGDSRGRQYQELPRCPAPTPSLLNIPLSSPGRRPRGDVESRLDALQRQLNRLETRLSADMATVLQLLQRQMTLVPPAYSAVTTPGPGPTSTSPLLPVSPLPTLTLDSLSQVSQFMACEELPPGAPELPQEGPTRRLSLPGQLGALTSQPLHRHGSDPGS
Chain of CYP2D6 (P10635 whole entry): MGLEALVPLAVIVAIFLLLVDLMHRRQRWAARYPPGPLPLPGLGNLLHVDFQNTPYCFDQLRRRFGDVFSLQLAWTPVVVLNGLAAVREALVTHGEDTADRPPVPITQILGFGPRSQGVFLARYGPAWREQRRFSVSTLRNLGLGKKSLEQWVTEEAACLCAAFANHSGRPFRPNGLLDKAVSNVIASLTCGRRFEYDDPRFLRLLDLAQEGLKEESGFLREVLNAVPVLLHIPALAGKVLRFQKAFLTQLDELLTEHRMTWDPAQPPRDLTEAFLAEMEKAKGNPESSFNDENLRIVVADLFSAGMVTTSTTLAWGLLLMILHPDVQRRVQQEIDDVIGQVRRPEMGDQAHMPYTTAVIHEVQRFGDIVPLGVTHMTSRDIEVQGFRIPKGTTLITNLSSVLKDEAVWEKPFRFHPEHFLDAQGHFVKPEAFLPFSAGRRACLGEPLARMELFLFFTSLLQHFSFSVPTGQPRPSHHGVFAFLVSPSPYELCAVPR
Chain of Ba/F3-TEL-FGFR3 (P22607 472-761 limits assumed, one chain of several): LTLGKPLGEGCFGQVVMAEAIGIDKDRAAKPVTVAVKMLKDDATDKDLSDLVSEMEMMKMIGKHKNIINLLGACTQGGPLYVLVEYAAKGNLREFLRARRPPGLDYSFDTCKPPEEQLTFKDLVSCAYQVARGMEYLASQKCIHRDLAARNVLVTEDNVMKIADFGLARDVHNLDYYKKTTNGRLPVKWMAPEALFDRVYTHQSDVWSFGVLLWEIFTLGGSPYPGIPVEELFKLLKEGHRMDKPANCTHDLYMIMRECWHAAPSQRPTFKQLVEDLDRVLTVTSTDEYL
Method for CYP1A2: (§3) Preparation of positive control inhibitor and compound working solution: 16 µL inhibitor stock solution or compound stock solution for each CYP subtype were taken and added to 24 µL DMSO. Then, they were diluted gradually three times with diluent to obtain different concentrations of test sample/positive control inhibitor working solution (7 concentrations each except for blank)
(§4) Preparation of test sample group working solution: The human liver microsomal working solution was divided into 96 well plates at 796 µL per well, and then 4 µL test sample working solution was added.
(§5) Preparation of positive control group working solution: The human liver microsomal working solution was divided into 96 well plates at 199 µL per well, and then 1 µL positive control inhibitor working solution was added.
(§6) Blank solvent working solution preparation: The human liver microsomal working solution was divided into 96 well plates at 199 µL per well, and then 1 µL DMSO was added.
(§7) (a) 30 µL test sample/positive control inhibitor working solution or 30 µL blank solvent working solution per well were transferred into a 96 well plate, and 15 µL substrate working solution of different enzyme subtypes transferred into each well, and mixed evenly. (b) The above incubation plates and 4 x NADPH working solution were preheated at 37 °C for 5 min. (c) 15 µL preheated 4 × NADPH working solution per well was transferred into the incubation plate, and the reaction initiated, and continued to be incubated at 37 °C.
(§8) (d) After the reaction time was reached, 180 µL termination solution was added to terminate the reaction. […] (f) After centrifugation, 80 µL supernatant was taken and added to 120 µL ultrapure water, and after it was mixed evenly, LC-MS/MS was used to analyze the metabolites of the probe substrate.
Method for CYP2C19: as §3, §4, §5, §6, §7, §8
Method for CYP2C9: as §3, §4, §5, §6, §7, §8
Method for CYP2D6: as §3
(§9) Preparation of liver microsomal working solution: 300 µL human liver microsomes (20.0 mg/mL) was taken and added to 29700 µL PBS and mixed well, and the concentration of the prepared human liver microsomal working solution was 0.200 mg/mL.
(§10) Preparation of 4 x NADPH working solution: A certain weight of NADPH tetrasodium salt was weighted and dissolved to a suitable volume of PBS to obtain NADPH working solution, with a concentration of 8.00 mM.
as §4, §5, §6
(§11) (a) 30 µL test sample/positive control inhibitor working solution or 30 µL blank solvent working solution per well were transferred into a 96 well plate, and 15 µL substrate working solution of different enzyme subtypes transferred into each well, and mixed evenly. (b) The above incubation plates and 4 x NADPH working solution were preheated at 37 °C for 5 min. (c) 15 µL preheated 4 × NADPH working solution per well was transferred into the incubation plate, and the reaction initiated, and continued to be incubated at 37 °C. The incubation time is as follows:
as §8
Method for CYP3A4: as §3, §9, §10, §4, §5, §6, §11, §8
Method for hERG: The test compound diluents were diluted with extracellular fluid containing 0.5% F68 in sequence to prepare working solutions of 30 µM, 10 µM, 3 µM, 1 µM and 0.3 µM, and 0.3% DMSO was ensured.
The test compound diluents were diluted with extracellular fluid containing 0.5% F68 in sequence to prepare working solutions with concentrations of 30 µM, 10 µM, 3 µM, 1 µM and 0.3 µM, and 0.3% DMSO was ensured.
Cells were inoculated into 6 cm cell culture dishes, with a total of 2.5 × 10^5 cells per dish (final volume: 5 mL). To maintain the electrophysiological activity of cells, the cell density must not exceed 80%.
The voltage stimulation protocol for recording hERG currents using whole cell patch clamp was as follows: when a whole cell seal was formed, the cell membrane voltage was clamped at -80 mV. […] Data was collected repeatedly every 10 s to observe the effect of the drug on hERG tail current. The experimental data was collected by IPA amplifier (Sutter Instrument) and stored in SutterPatch (with Igor Pro) software.
When the hERG current recorded by the whole cell was stabilized, administration began, and each drug concentration acted for about 5 min (or until the current was stabilized), and then the next concentration was detected, multiple concentrations were detected for each test compound. The cover glass covered with cells was placed in the recording bath under an inverted microscope, the blank control solution and the test compound working solution sequentially flowed through the recording bath from low concentration to high concentration using gravity perfusion to act on the cells, liquid exchange was performed using a peristaltic pump during recording. The current of each cell detected in the extracellular fluid without the compound serves as its own control group. Each concentration should be independently tested twice using at least two cells. All electrophysiological tests were performed at room temperature.

The term AUC(0-t) denotes the area under the concentration-time curve up to a stated or last time point. A lower AUC(0-t) goes with low exposure. A word on the Cmax: it is the maximum level reached in the sampled fluid or tissue. A word on the Tmax: it is the time from dosing to the highest level. As usually defined, the inhibition is the relative decrease from the control value, in per cent. Consider `C=C(C)C(=O)Nc1ccc(-c2c(-c3ccc(N=S4(=O)CCCC4)cc3)c3c(N)ncnc3n2C)c(F)c1` [Compound 24], for which the IC50 on CYP3A4 was 10.7 µM. In addition, in data set [1], the AUC(0-t) came to 871 ng·h/mL, the highest level (Cmax) was 270 ng/mL, the Tmax was determined as 15 min and the half-life was 85.8 min. The IC50 on CYP2C19 worked out at 19.4 µM. For the same molecule, in data set [2], the hepatocyte CLint is 37.1 µL/min/1e6 cells, the half-life was 37.3 min and the “Remaining percentage of compound after 60 min of incubation (%)” value is 37.55%. Also, the IC50 against CYP2C9 came to 29 µM. Further, the IC50 at Ba/F3-TEL-FGFR1 was 1910 nM. The same molecule gave an IC50 against CYP1A2 greater than 10 µM. This molecule also yielded an IC50 on hERG greater than 10 µM. Also, on hERG (human, hek-293 cells), the inhibition at 0.3 µM is -1.24%, the inhibition at 1 µM was 7.73%, the inhibition at 3 µM was found to be 10.2% and the inhibition at 10 µM worked out at 32.2%. Besides, at hERG (human, hek-293 cells), the inhibition at 30 µM came to 14.2%. Moreover, the IC50 against CYP2D6 came to 14.3 µM. At Ba/F3-TEL-FGFR2, the IC50 came out at 2.1 nM.

Turning to `[2H]C([2H])([2H])n1c(-c2ccc(NC(=O)C(=C)C)cc2F)c(-c2ccc(N=S3(=O)CCCC3)cc2)c2c(N)ncnc21` [Compound 83, N-(4-(4-amino-7-(methyl-d3)-5-(4-(1-oxotetrahydro-1 λ^6-thiophene-1-imino)phenyl)-7H-pyrrolo[2,3-d]pyrimidin-6-yl)-3-fluorophenyl)methacrylamide], the IC50 at CYP3A4 is 11.6 µM; on CYP2C19 it was 14.1 µM; against CYP2C9, 14.4 µM; at Ba/F3-TEL-FGFR1, 661 nM; on Ba/F3-TEL-FGFR3, 319 nM; at CYP1A2, greater than 10 µM. The IC50 against CYP2D6 is 8.77 µM; at Ba/F3-TEL-FGFR2, 1.1 nM. Further, the exposure AUC(0-t) in data set [1] stood at 1480 ng·h/mL. The same molecule gave a Cmax in data set [1] of 414 ng/mL. Further, the Tmax in [1] stood at 19.8 min. In addition, the half-life is 112 min in data set [1] and 37.1 min in data set [2]. In data set [2], the hepatocyte CLint was 37.3 µL/min/1e6 cells. Moreover, the “Remaining percentage of compound after 60 min of incubation (%)” value in data set [2] is reported as 35.86%.

On to `C=C(C)C(=O)Nc1ccc(-c2c(-c3ccc(N=S(=O)(CC)CC)cc3)c3c(N)ncnc3n2C)c(F)c1` [Compound 58], for which the IC50 is greater than 10 µM at CYP3A4; 9.52 nM in the data set with SNU16 cells; 1270 nM in the data set on A204 cells; 5.42 µM against CYP2C19; 29.7 µM on CYP2C9; 2030 nM on Ba/F3-TEL-FGFR1. Besides, the IC50 on Ba/F3-TEL-FGFR3 was 442 nM; at CYP1A2, greater than 10 µM; against CYP2D6, 9.81 µM; at Ba/F3-TEL-FGFR2, 3 nM. The same molecule showed an AUC(0-t) in [1] of 1420 ng·h/mL. The molecule also returned a maximum concentration (Cmax) in data set [1] of 604 ng/mL. Further, the Tmax in data set [1] was determined as 30 min. The same molecule showed a half-life in data set [1] of 191 min.
